The structures appear in SMILES notation. “And” between values parts separate entries of the source, which are not always exact repeats. Equal values may be shown once. Where a name gives a salt, the structure may show the parent alone. Read-outs that look alike come from different tables or passages of the source.

For one experiment, the system named is DU145. As to the kind of experiment: In vitro tumor cell proliferation, DU145. The class given is cell-based, human. To be noted: many values given with an undefined *, read-out: In vitro Tumor Cell Proliferation (IC50, μM) Prostate DU145. The essentials:
(§1)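 Tumor cells were seeded overnight at 37° C, then exposed to drug diluted in culture medium for 3 days, refed with fresh drug-containing medium and kept 4 more days. Cells were fixed with 10% trichloroacetic acid and stained with 0.4% sulforhodamine B; alternatively, CyQUANT read proliferation after 3 days' drug exposure.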

The test system of a further experiment is MCF-7. As to the kind of experiment: In vitro tumor cell proliferation, MCF-7. The class given is cell-based, human. To be noted: sulforhodamine B or CyQUANT assay, read-out: In vitro Tumor Cell Proliferation (IC50, μM) Breast MCF-7. How it is done: (§2) The proliferation of tumor cells was measured using a sulforhodamine B assay as described in Skehan, P., et al., J. Natl. Cancer Inst. […] Tumor cells were harvested with trypsin-EDTA, cells that excluded trypan blue were counted, added to 96-well plates and incubated overnight at 37° C. Drug was added to the wells following dilution in culture medium. Three days later, the medium was removed and replenished with medium containing fresh drug and incubated an additional 4 days. The cells were then fixed with 0.1 ml 10% trichloroacetic acid for 60 min at 4° C. The plates were rinsed five times with tap water, air-dried and stained for 30 min with 0.4% sulforhodamine B in 1% acetic acid and air-dried.
(§3) Alternatively, the CyQUANT cell proliferation assay was used to quantitate cell proliferation.
(§4) Alternatively, the CyQUANT cell proliferation assay was used to quantify tumor cell proliferation. Tumor cells were harvested with trypsin-EDTA, cells that excluded trypan blue were counted, added to 96-well plates and incubated overnight at 37° C. Drug was added to the wells following dilution in culture medium. Three days later the medium was removed and the plates frozen at −80° C. for at least 30 minutes.
MCF7 is a human breast adenocarcinoma, hormone-dependent (HTB 22);

For another experiment, the system named is A549. As to the kind of experiment: In vitro tumor cell proliferation, A549. The class given is cell-based, human. As to conditions: many values given with an undefined *, read-out: In vitro Tumor Cell Proliferation (IC50, μM) Lung A549. The method in brief: as §1
A further experiment relates to HCT-15. As to the kind of experiment: In vitro tumor cell proliferation, HCT-15. The class given is cell-based, human. As to conditions: read-out: In vitro Tumor Cell Proliferation (IC50, μM) Colon HCT-15. How it is done: as §2, §3, §4
The subject of the next experiment is DMS-114. As to the kind of experiment: In vitro tumor cell proliferation, DMS-114. To be noted: many values given with an undefined *, read-out: In vitro Tumor Cell Proliferation (IC50, μM) Lung DMS-114. The class given is cell-based, human. The essentials: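 Human small cell lung carcinoma DMS-114 cells plated overnight, then drug-treated for 3 days, medium and drug renewed, and incubated 4 more days. Growth read by sulforhodamine B staining after TCA fixation; alternatively by CyQUANT after 3 days' drug exposure and freezing at −80 °C.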

The next experiment has as its target T1, cdk2/cyclin E (Homo sapiens, UniProt P24941).
T1 construct: made in house; host or cells: insect cells (baculovirus co-infection)
As to the kind of experiment: Cyclin-Dependent Kinase 2 Assay (cdk2/cyclin E, GST-Rb substrate). The class given is biochemical. To be noted: recombinant cdk2/cyclin E, 10 μM ATP, 30 min at 30° C., several values in a cell = separate determinations, read-out: CDK-2 Inhibition IC50. How it is done:
Substrate: GST-Rb as described above for cdk4/cyclin D1
Assay conditions for cdk2/cyclin E were identical to those for cdk4/cyclin D1 including the substrate. The concentration of recombinant cdk2/cyclin E in the assay was 0.1 μg per 100 μl assay. Incubation was for 30 min at 30° C.

For the next experiment, the system named is HT-29. As to the kind of experiment: In vitro tumor cell proliferation, HT-29. The class given is cell-based, human. As to conditions: many values given with an undefined *, read-out: In vitro Tumor Cell Proliferation (IC50, μM) Colon HT-29. The essentials: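 HT-29 cells seeded overnight at 37° C, then exposed to drug for 3 days, refed with fresh drug-containing medium for 4 more days. Proliferation read by sulforhodamine B staining after TCA fixation; alternatively by CyQUANT after freezing plates at −80° C following 3 days' drug exposure.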

The subject of the next experiment is MDA-MB-231. As to the kind of experiment: In vitro tumor cell proliferation, MDA-MB-231. The class given is cell-based, human. To be noted: sulforhodamine B or CyQUANT assay, many values given with an undefined *, read-out: In vitro Tumor Cell Proliferation (IC50, μM) Breast MDA-MB-231. The method in brief:
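Cells plated overnight at 37 °C, then exposed to drug for 3 days, refed with fresh drug and incubated 4 more days. Read-out by sulforhodamine B staining after TCA fixation; alternatively, CyQUANT after 3-day drug exposure and freezing at −80 °C.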

A further experiment relates to PC-3. As to the kind of experiment: In vitro tumor cell proliferation, PC-3. The class given is cell-based, human. As to conditions: many values given with an undefined *, read-out: In vitro Tumor Cell Proliferation (IC50, μM) Prostate PC-3. The essentials: as §1
For another experiment, the target named is T2, cdk4/cyclin D1 (Homo sapiens, UniProt P11802).
T2 construct: made in house; host or cells: Sf9 insect cells (Bac-to-Bac baculovirus, pFastBac)
T2 sequence (P11802 whole entry): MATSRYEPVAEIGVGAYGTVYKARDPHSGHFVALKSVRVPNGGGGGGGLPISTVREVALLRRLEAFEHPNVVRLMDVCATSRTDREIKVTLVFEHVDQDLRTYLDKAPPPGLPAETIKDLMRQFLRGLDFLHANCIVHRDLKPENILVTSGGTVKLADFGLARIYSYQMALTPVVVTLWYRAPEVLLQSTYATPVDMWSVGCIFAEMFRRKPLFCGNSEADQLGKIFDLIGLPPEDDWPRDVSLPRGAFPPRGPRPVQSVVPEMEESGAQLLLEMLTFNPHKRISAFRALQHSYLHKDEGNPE
T2 sequence (P24385 whole entry partner): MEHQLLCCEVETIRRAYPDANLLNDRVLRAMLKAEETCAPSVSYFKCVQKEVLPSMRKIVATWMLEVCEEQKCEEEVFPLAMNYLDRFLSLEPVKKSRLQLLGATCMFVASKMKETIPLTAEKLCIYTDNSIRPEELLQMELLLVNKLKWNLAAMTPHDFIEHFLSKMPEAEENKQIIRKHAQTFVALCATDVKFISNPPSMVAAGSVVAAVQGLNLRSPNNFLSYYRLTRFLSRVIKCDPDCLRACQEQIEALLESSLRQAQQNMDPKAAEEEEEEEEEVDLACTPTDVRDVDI
As to the kind of experiment: Cyclin-dependent Kinase 4 Assay (cdk4/cyclin D1, GST-Rb substrate). The class given is biochemical. As to conditions: cdk4/cyclin D1 insect cell lysate, 10 μM ATP, 30 min at 37° C., several values = separate determinations, read-out: CDK4 Inhibition IC50. The method in brief: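 Insect-cell lysate of coexpressed cdk4/cyclin D1 (0.1 μg) acts on GST-Rb (0.5 μg) bound to glutathione-Sepharose, in 50 mM HEPES pH 7.5, 10 mM MgCl2, 1 mM EGTA. Reaction runs 30 min at 37 °C, then is stopped by filtration and TNEN washes. Rb phosphorylation read by scintillation counting; IC50 derived.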

Experiment [1] has as its system PC12 cells, or rat sympathetic neurons. To be noted: cited from earlier work; for concentration giving maximal protection from death: camptothecin-treated, minimum concentrations that fully inhibit DNA synthesis by proliferating PC12 cells; for cell death: day 6, in the presence or absence of camptothecin.
The next experiment relates to cortical neurons. To be noted: cited from earlier work; for IC50: Park et al. 1997, read-out: IC50, protection against camptothecin-induced cortical neuronal death.
Experiment [2] concerns neuronal PC12 cells and sympathetic neurons. As to conditions: two model systems of neuronal survival; Park et al. 1996; cited from earlier work.
For experiment [3], the system named is cAMP- and cGMP-dependent kinases, and protein kinase C. To be noted: cited from earlier work.
Experiment [4] has as its system CDK-cyclin protein kinases. As to conditions: Vesely et al. 1994; cited from earlier work.
The mark [5] stands for this setting: Homo sapiens, MDA-MB-231, MDA-MB-231.

Regarding `COc1cc(CNc2nc(N[C@H]3CC[C@H](N)CC3)nc3c2ncn3C2CCCC2)cc(OC)c1` [Example 28, 2-[Trans-(4-aminocyclohexyl)amino]-6-[(3 5-dimethoxybenzyl)amino]-9-cyclopentylpurine dihydrochloride], the IC50 with DU145 (DU145, dihydrochloride) is 9.1 µM; in the experiment on DU145 (Homo sapiens, DU-145, DU145), 6.4 µM; with MCF-7 (Homo sapiens, MCF7, MCF-7), 5.6 µM; with MCF-7 (MCF-7, dihydrochloride) it was 11 µM; in the experiment with A549 (Homo sapiens, A549, A549) it was 1.9 µM; in the experiment with HCT-15 (Homo sapiens, HCT-15, HCT-15), over 20 µM. The IC50 in the experiment with DMS-114 (DMS-114, dihydrochloride) is 7.7 µM; with DMS-114 (Homo sapiens, DMS-114, DMS-114) it was 6.1 µM; at cdk2/cyclin E, 0.48 µM; in the experiment with HT-29 (Homo sapiens, HT-29, HT-29), 12 µM; in the experiment on MDA-MB-231 (setting [5]) it was 12 µM; with PC-3 (Homo sapiens, PC-3, PC-3) it was 4.8 µM. Further, the IC50 with PC-3 (PC-3, dihydrochloride) was 6.4 µM; at cdk4/cyclin D1, 2.2 µM and 2.6 µM.
In the case of `COc1ccc(CNc2nc(N[C@H]3CC[C@H](N)CC3)nc3c2ncn3C2CCCC2)cc1OC` [Example 34, 2-[Trans-(4-aminocyclohexyl)amino]-6-[3,4-dimethoxybenzyl)amino]-9-cyclopentylpurine dihydrochloride], the IC50 in the experiment on DU145 (DU145, dihydrochloride) worked out at 4.3 µM; in the experiment with DU145 (Homo sapiens, DU-145, DU145), 2.7 µM; with MCF-7 (Homo sapiens, MCF7, MCF-7), 2.3 µM; in the experiment on MCF-7 (MCF-7, dihydrochloride) it was 3.5 µM; with A549 (A549, dihydrochloride) it was 4.8 µM; with A549 (Homo sapiens, A549, A549) it was 3.4 µM. The IC50 in the experiment on HCT-15 (Homo sapiens, HCT-15, HCT-15) was 7.7 µM; with DMS-114 (DMS-114, dihydrochloride), 4.5 µM; in the experiment on DMS-114 (Homo sapiens, DMS-114, DMS-114) it was 4.2 µM; at cdk2/cyclin E, 0.08 µM; in the experiment on HT-29 (HT-29, dihydrochloride), 6 µM; in the experiment on HT-29 (Homo sapiens, HT-29, HT-29), 3.4 µM. The IC50 in the experiment with MDA-MB-231 (setting [5]) was 3.4 µM; in the experiment with MDA-MB-231 (MDA-MB-231, dihydrochloride) it was 5.8 µM; with PC-3 (Homo sapiens, PC-3, PC-3), 1 µM; with PC-3 (PC-3, dihydrochloride), 2 µM; on cdk4/cyclin D1, 1.2 µM and 0.8 µM.
As for `CN1CC[C@H](c2c(O)cc(O)c3c(=O)cc(-c4ccccc4Cl)oc23)[C@H](O)C1` [Flavopiridol], in experiment [1], the “concentration giving maximal protection from death” value was 1 µM and the cell death entry is “approximately 30%”. Besides, the IC50 in the experiment on cortical neurons is 0.1 µM. Besides, the “effect on death of neuronal PC12 cells and sympathetic neurons” value in experiment [2] is listed as “suppress the death”.
Consider `Cn1cnc2c(NCc3ccccc3)nc(NCCO)nc21` [Olomoucine, 6-(benzylamino)-2-[(2-hydroxyethyl)amino]-9-methylpurine, reference compound], for which the IC50 was over 100 µM with DU145 (Homo sapiens, DU-145, DU145); 35 µM in the experiment on MCF-7 (Homo sapiens, MCF7, MCF-7); 69 µM in the experiment with A549 (Homo sapiens, A549); 63 µM in the experiment on HCT-15 (HCT-15); 62 µM in the experiment on HCT-15 (Homo sapiens, HCT-15, HCT-15); 76 µM in the experiment on DMS-114 (DMS-114). In addition, the IC50 is 50 µM in the experiment on DMS-114 (Homo sapiens, DMS-114, DMS-114); 100 µM in the experiment on cortical neurons; 58 µM in the experiment on HT-29 (HT-29); 53 µM in the experiment with HT-29 (Homo sapiens, HT-29, HT-29); 55 µM in the experiment with PC-3 (Homo sapiens, PC-3); about 7 µM in experiment [4]. Further, the “concentration giving maximal protection from death” value in experiment [1] is 200 µM. The cell death result in [1] is given as “approximately 30%”. Further, in experiment [3], the “effect on other major protein kinases” value is recorded as “no effect”. For the same compound, the “effect on death of neuronal PC12 cells and sympathetic neurons” value in experiment [2] is listed as “suppress the death”.
`Cn1cnc2nc(NCCO)nc(NCc3ccccc3)c21` [iso-olomoucine]: the “prevention of cell death of camptothecin-treated neuronal cells” value (in experiment [1] (PC12 cells / sympathetic neurons); in the experiment on cortical neurons (cortical neurons)) was “failed to prevent the cell death” throughout.

The record behind these values is US6479487B1, “6, 9-disubstituted 2-[trans-(4-aminocyclohexyl)amino] purines” (Aventis Pharmaceuticals Inc., priority 1998, dated 2002).
